These are literature values, as cited in patent US20120172289A1, “MULTIFUNCTIONAL GLYCOPEPTIDE ANTIBIOTIC DERIVATIVES FOR FLUORESCENT IMAGING AND PHOTOACTIVE ANTIMICROBIAL THERAPY” (NANYANG TECHNOLOGICAL UNIVERSITY, priority 2010, published 2012).

The test system of this data set is D-Ala-D-Lac. The conditions noted are these: mutation of peptidoglycan sequence in VRE.

With `CN[C@H](CC(C)C)C(=O)N[C@H]1C(=O)N[C@@H](CC(N)=O)C(=O)N[C@H]2C(=O)N[C@H]3C(=O)N[C@H](C(=O)N[C@H](C(=O)O)c4cc(O)cc(O)c4-c4cc3ccc4O)[C@H](O)c3ccc(c(Cl)c3)Oc3cc2cc(c3O[C@@H]2O[C@H](CO)[C@@H](O)[C@H](O)[C@H]2O[C@H]2C[C@](C)(N)[C@H](O)[C@H](C)O2)Oc2ccc(cc2Cl)[C@H]1O` [Vancomycin], the “decrease of binding affinity, D-Ala-D-Ala to D-Ala-D-Lac” value is listed as ~10^3 times.
